Test results: patent US20260152777A1, “METHOD FOR PRODUCING EPIGALLOCATECHIN GALLATE MONOGLUCOSIDE” (GIVAUDAN SA, priority 2022, published 2026)
pIC50: −log10 of the molar value. One block for each molecule: values may come before it.

Assays:
[1] = system: spontaneous formation of Advanced Glycation End-products (AGEs); assay: Anti-glycation in tubo assay (BSA + ribose, fluorescence); type: biochemical; conditions: 17 h at 37° C.; for pIC50: BSA + ribose, read-out: IC50 in well (concentration which inhibits AGEs formation by half)
Description: The anti-glycation effect was evaluated using an in tubo assay to measure the spontaneous formation of Advanced Glycation End-products (AGEs). This assay was conducted on a 96-wells microplate. […] The extracts were diluted in sodium phosphate buffer (0.1 M, pH 7.4). Several dilutions were tested. Each diluted extract was run in triplicate. A standard range of aminoguanidine was used as inhibitor reference (positive control). A mixture of the sodium phosphate buffer and BSA was used to validate the experiment and a mixture of sodium phosphate buffer, BSA and ribose was used as the positive control. Two blanks were carried out for the extract: • with phosphate buffer, BSA and extract • with phosphate buffer, ribose and extract The microplate was agitated and incubated for 17 h at 37° C. The fluorescence reading was performed with ? excitation 340 nm and ? emission 420 nm. The anti-glycation activity of the extract was calculated as follows: [formula] FI: Fluorescence of tested extract; blank extract (ribose or BSA); positive control; negative control. Based on the above measurements and calculation, the IC50, i.e. the concentration of the extract which inhibits AGEs formation by half, was calculated.

[2] = system: female volunteers with a dark skin type (phototype IV or more) and dull skin; assay: Clinical evaluation on African skin: skin color by Chromameter L* parameter; type: in vivo, human; conditions: cream with 0.01% of EGCG aglycone, full face twice daily, dark skin type
Description: The clinical study was carried out on 85 female volunteers aged from 19 to 47 years, which were divided in three groups: active, placebo and aglycone. The study was performed in South Africa on female volunteers with a dark skin type (phototype IV or more) and dull skin. All participants provided signed informed consent at the beginning of the study. The study was conducted according to the guidelines of the Declaration of Helsinki. […] Skin color evolution was measured after 14, 28 and 56 days using L* parameter measurement by Chromameter®.
The skin color was evaluated by means of a Chromameter CR400, which measures skin color, and the parameter L* (lightness) was recorded. The greater the value, the lighter the skin color. Depending on the test type, at least three or at least 15 readings were taken at each test sub-site for each time interval to serve as the specific pigmentation sport color measurement component of the study. Skin color was analyzed at D0, D14, D28 and D56.
For all studies in vivo, a Shapiro Wilk test was used to verify whether the raw data followed the Gaussian Law. In case of Normally-distributed data, the mean values were compared using either an unpaired or paired t student test. In case of non-Normally-distributed data, a Wilcoxon (paired) and Kruskal-Wallis test followed by a Mann-Whitney U (unpaired) test were used for paired data and unpaired data, respectively.

human skin explants = assay: Whitening activity (ex vivo), Fontana-Masson staining for melanin quantification; type: cell-based; conditions: at 2%, topical, 7 days
Description: Fresh human skin explants were obtained from skin phototype III and VI donors, aged of 46±25 years. […] Kojic acid (Sigma-Aldrich) at 2% was topically applied and incubated under the same conditions, serving as positive control. The untreated condition was treated with the vehicle (distilled water). The medium was renewed every other day. After the end of culture, the skin explants were sampled and put in formalin before being dehydrated and embedded in paraffin for Fontana-Masson staining.
Skin explants fixed in formalin were dehydrated and embedded in paraffin. Sections of 4 μm thickness were dewaxed and then stained by Fontana-Masson silver method for melanin.
Images were collected using an Axio Observer Inverted fluorescence microscope (Zeiss) in bright field mode.
Melanin was quantified using two open source optical imaging software programs. Photomicrographs (jpeg format) of Fontana-Masson tissue sections were opened in GIMP-GNU Image Manipulation Program. The brown-black color signals corresponding to melanin grains on stained sections were selected, copied and pasted into a new image and saved as a jpeg file; this jpeg file consists solely of black/brown (melanin grains) on a white background. This image was subsequently opened using the ImageJ program. The image was then inverted and the mean intensity was obtained.

[3] = system: Normal Human Epidermal Keratinocytes (NHEKs); assay: Antioxidant activity: ROS production in keratinocytes stressed with TBP (DCFH-DA probe); type: cell-based; conditions: at 200 μM
Description: A 96 wells-plate was coated with a collagen I solution at 50 μg/ml. Normal Human Epidermal Keratinocytes (NHEKs) were seeded at 20′000 cells per well with four replicates. Cells were incubated for 24 hours in complete medium (Epilife, Gibco) supplemented with Human keratinocyte growth supplements (HKGS) factor (Gibco) and 1% antibiotics (Sigma) at 37° C. with 5% CO2. […] The evolution of the fluorescence was followed for 1 hour.

[4] = Skin penetration by Raman spectroscopy (ex vivo); type: in vitro ADME, human; conditions: human
Description: At the end of the incubation period, the skin explants were frozen in Optimal Cutting Temperature (OCT; VWR) at −80° C. and then cut longitudinally using a cryotome with a thickness of 20 μm. For each explant, 3 tissue sections were selected and deposited on a CaF2 support for Raman imaging analysis. The processing of corrected data maps was performed by using a software based on least squares fitting method that operates in the Matlab environment. This method involves mathematical modeling of reference spectra in the overall spectral image to determine the contribution and distribution of these spectra within the image. The reference spectra were the modelled spectra of the following products: Aglycone, glucoside mixture, 4′-O-α-monoglucoside and untreated skin control.

pIC50 [1]: 3.89
Structure (SMILES): O=C(O[C@@H]1Cc2c(O)cc(O)cc2O[C@@H]1c1cc(O)c(O)c(O)c1)c1cc(O)c(O)c(O)c1 [EGCG aglycone, epigallocatechin gallate]
Inhibition AGE's ([1]; tested concentration 0.109 mM): 31.95% | Inhibition AGE's ([1]; tested concentration 0.436 mM): 59.84% | Inhibition AGE's ([1]; tested concentration 2.180 mM): 93.56% | Inhibition AGE's ([1]; tested concentration 10.9 mM): 97.36% | L* on uneven skin tone area [2]: slight decrease of L* | global skin color whitening, 15 measurements on hemi face [2]: almost no whitening effect

Structure (SMILES): O=c1cc(CO)occ1O [Kojic acid]
reduction of melanin content compared to untreated (human skin explants): 34%

Structure (SMILES): Oc1ccc(C=Cc2cc(O)cc(O)c2)cc1 [Resveratrol]
reduction of ROS production ([3]; 24 h, NHEKs stressed with TBP 5 mM): 61% | ROS, Mean (% of untreated) ([3]; TBP column = 100, Untreated = 27.5): 39 % of untreated

pIC50 [1]: 3.49
Structure (SMILES): N=C(N)NN [aminoguanidine, reference compound]

Structure (SMILES): OCC1OC(Oc2c(O)cc(C3Oc4cc(O)cc(O)c4CC3O)cc2O)C(O)C(O)C1O (stereo not drawn) [epigallocatechin 4′-O-α-monoglucoside, Epigallocatechin 4′-O-α-monoglucoside]
bioavailability in the skin [4]: much higher bioavailability in the skin than the respective aglycones
